Experimental data as given in ChEMBL document CHEMBL1201862, “PubChem BioAssay data set” (2004).
The source made the active and inactive calls.

Legend:
[1] = microbe, parasite or virus in culture; assay type: functional; conditions: Mycobacterium tuberculosis
[2] = target: T1, Short transient receptor potential channel 4 (Mus musculus, UniProt Q9QUQ5); assay: block of DAMGO-driven TRPC4 calcium entry – cell-based, HEK293 TRPC4/mu-opioid, Fluo-4 calcium, dose response (AID 434942); assay type: functional;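 further: potency of inhibitors blocking the TRPC4 calcium response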
T1 sequence (Q9QUQ5 whole entry): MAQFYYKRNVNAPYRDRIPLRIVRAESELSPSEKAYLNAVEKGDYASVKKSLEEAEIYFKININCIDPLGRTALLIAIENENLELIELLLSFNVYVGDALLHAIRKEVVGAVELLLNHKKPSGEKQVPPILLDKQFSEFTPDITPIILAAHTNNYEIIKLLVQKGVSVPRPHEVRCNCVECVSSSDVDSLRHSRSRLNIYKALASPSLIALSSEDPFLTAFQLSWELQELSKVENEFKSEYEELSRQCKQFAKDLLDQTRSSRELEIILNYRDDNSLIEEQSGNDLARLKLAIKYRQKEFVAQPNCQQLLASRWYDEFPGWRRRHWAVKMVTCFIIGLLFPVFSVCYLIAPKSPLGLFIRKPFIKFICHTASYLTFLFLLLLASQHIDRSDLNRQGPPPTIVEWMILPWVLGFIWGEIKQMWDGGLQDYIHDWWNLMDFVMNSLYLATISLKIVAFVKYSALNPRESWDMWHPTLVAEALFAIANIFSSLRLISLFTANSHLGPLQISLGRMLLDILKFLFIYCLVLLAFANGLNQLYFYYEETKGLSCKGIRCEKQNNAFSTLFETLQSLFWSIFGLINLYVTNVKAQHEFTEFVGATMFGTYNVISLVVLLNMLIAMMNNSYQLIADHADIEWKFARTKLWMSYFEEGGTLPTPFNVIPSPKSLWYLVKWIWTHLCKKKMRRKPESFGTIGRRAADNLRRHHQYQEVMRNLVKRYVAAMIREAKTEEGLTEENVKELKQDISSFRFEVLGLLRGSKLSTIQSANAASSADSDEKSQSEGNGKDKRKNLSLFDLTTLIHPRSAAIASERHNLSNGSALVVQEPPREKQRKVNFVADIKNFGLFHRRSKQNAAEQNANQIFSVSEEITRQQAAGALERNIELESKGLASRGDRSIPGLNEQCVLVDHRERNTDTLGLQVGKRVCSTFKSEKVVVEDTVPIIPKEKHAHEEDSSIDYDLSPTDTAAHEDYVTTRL

[3] = Trypanosoma cruzi growth suppression in host cells – NIH3T3 host cells, beta-gal luminescence, confirmation (AID 2044); assay type: functional, cell-based;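 further: intracellular parasites grown in NIH/3T3 mouse fibroblasts as host cells; luminescent beta-galactosidase reporter signal from transgenic T. cruzi replicating inside host cells; inhibitors lower the luminescence signal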
[4] = NIH3T3 cell viability loss – ATP luminescence, mouse fibroblasts, counter-screen, dose response (AID 2010); assay type: functional, cell-based;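 further: cells exposed to compound for about 90 hours before reading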
[5] = cells; assay type: functional
[6] = target: T2, RNA-binding protein pos-1 (Caenorhabditis elegans, UniProt G5EF15); assay: disruptors of C. elegans POS-1 RNA interaction – biochemical, fluorescence polarization, dose response (AID 1964);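 further: purified POS-1 fused to maltose binding protein made in E. coli; potency of compounds blocking POS-1 binding to fluorescent RNA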
T2 sequence (G5EF15 whole entry): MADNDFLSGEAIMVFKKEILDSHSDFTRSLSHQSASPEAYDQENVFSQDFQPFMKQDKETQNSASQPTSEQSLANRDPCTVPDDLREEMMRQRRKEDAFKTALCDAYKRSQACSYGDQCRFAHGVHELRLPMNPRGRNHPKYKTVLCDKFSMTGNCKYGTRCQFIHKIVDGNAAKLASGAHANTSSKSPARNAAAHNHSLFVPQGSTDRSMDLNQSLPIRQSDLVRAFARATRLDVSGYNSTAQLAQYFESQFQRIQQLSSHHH

[7] = target: T3, Zinc finger protein mex-5 (Caenorhabditis elegans, UniProt Q9XUB2); assay: potency of MEX-5 RNA-binding blockers – biochemical, C. elegans, fluorescence polarization, dose response (AID 1960)
T3 sequence (Q9XUB2 whole entry): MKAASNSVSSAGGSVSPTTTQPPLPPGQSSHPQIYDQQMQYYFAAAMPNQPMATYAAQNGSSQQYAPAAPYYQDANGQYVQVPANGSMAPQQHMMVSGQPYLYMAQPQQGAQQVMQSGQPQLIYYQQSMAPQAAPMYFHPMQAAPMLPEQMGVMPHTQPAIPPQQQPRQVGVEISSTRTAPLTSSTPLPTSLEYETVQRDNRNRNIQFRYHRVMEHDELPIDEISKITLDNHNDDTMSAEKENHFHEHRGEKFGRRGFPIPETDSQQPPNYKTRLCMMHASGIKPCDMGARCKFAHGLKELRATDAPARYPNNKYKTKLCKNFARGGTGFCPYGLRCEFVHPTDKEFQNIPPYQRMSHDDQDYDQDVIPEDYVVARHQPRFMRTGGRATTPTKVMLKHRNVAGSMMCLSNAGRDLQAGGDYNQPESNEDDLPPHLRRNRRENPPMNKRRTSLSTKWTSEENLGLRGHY

[8] = target: Genome polyprotein (dengue virus type 2, UniProt P29990); assay: flavivirus cap methylation enzyme inhibition – biochemical, confirmation dose response, primary screen (AID 588689); assay type: functional
Chain of Genome polyprotein (P29990 2492-3391 limits assumed): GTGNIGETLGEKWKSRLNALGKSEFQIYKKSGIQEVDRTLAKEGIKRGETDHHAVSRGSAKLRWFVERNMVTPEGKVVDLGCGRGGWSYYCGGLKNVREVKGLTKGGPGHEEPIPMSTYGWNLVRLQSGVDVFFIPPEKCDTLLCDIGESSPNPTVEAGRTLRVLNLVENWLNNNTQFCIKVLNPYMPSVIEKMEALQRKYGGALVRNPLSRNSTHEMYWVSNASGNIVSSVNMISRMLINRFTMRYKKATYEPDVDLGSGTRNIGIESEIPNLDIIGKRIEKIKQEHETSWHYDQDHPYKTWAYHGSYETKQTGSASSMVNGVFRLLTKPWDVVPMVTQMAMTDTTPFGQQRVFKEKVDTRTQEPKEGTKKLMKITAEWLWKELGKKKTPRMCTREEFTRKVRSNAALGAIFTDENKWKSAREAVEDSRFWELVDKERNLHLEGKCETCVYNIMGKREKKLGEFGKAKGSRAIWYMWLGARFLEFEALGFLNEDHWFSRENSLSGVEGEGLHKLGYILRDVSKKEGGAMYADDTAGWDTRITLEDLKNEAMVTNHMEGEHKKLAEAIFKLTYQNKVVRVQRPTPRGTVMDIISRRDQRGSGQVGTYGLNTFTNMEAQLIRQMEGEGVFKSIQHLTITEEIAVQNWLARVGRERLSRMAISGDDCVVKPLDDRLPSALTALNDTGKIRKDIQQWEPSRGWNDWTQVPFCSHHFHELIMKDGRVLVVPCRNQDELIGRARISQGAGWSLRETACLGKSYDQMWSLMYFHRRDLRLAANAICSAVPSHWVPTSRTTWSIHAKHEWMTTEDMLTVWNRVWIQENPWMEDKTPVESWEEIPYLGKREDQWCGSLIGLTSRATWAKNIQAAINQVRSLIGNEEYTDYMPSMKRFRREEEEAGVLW

[9] = viability of PTEN-deleted HCT116 cells – cell-based, HCT116 PTEN knockout, dose response (AID 1047); assay type: functional;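 further: HCT116 colon tumor cells with PTEN knocked out; cells exposed to compound for 60 hours before readout; potency for loss of cell viability measured by luminescence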
[10] = viability of HCT116 lacking mutant beta-catenin – cell-based, human colon tumor, dose response (AID 1045); assay type: functional;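 further: HCT116 colon tumor cells with beta catenin knocked out; cells exposed to compound for 60 hours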
[11] = Luminescence Cell-Based Dose Retest to Confirm Inhibitors of Cancer Stem Cells. [Related pubchem assays (depositor defined):AID2717, AID2721]; assay type: functional; conditions: Homo sapiens
[12] = A549 cell cytotoxicity, dose response, cytotoxicity control, plate reader, cherry-pick, antagonist series (AID 743412); assay type: functional, cell-based
[13] = blockers of bursicon-stimulated LGR2 cAMP reporter – cell-based, HEK293, CRE-luciferase reporter, cherry pick, set 2, dose response (AID 743343); assay type: functional;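 further: transfected cells were stimulated with diluted bursicon conditioned medium after compound addition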
[14] = blockade of melanocortin 4 receptor signaling – cell-based, plate reader, cherry pick, counter-screen for LGR2 antagonist project, dose response (AID 743444); assay type: functional;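 further: transfected HEK 293 cells stimulated with alpha-MSH peptide; potency of inhibitors of the alpha-MSH evoked signal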
[15] = target: T4, Replicative DNA helicase DnaB (Mycobacterium tuberculosis, UniProt P9WMR3); assay: DnaB intein splicing inhibitors, dose response, biochemical, cell-free fluorescence (AID 449749); assay type: functional
T4 sequence (P9WMR3 whole entry): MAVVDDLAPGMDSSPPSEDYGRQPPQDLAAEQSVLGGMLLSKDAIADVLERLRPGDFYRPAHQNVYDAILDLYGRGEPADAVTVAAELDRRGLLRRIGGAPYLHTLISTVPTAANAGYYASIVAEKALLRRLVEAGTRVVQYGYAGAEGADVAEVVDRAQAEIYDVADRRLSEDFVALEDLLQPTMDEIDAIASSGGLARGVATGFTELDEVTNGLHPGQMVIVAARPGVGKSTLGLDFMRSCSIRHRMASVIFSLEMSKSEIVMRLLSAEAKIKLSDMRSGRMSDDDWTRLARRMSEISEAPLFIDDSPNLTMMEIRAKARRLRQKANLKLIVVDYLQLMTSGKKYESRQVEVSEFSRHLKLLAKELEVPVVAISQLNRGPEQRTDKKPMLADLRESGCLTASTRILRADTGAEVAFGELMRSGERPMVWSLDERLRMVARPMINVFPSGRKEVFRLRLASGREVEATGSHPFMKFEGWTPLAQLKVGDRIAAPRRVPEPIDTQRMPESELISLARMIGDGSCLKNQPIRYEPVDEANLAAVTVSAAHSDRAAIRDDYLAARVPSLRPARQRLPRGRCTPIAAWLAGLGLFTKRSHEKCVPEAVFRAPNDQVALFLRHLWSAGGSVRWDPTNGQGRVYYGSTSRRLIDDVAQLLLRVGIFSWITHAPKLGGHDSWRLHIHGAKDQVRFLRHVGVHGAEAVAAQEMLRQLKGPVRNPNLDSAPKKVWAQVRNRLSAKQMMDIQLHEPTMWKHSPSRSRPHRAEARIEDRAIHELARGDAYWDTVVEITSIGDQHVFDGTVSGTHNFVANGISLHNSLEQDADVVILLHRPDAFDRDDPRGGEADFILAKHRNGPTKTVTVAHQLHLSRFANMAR

[16] = HIV-1 AD8 envelope cell-cell fusion blockers – cherry-pick, dose response (AID 652062); assay type: functional, cell-based;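 further: luciferase signal from cell-cell fusion driven by HIV-1 clade B AD8 Env; potency is for inhibitors of fusion seen as a drop in luminescence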
[17] = system: Streptococcus sp. 'group A'; assay: Streptococcus pyogenes SK(-)GAS viability under kanamycin – luminescence, BacTiterGlo, confirmation, counter-screen for streptokinase expression inhibitor project, dose response (AID 1900); assay type: functional, organism-based
[18] = target: T5, Streptokinase A (Streptococcus pyogenes serotype M1, UniProt P10520); assay: viability-normalized secreted streptokinase activity reduction – plasminogen activation absorbance, OD405, dose response (AID 1914); assay type: functional, Streptococcus pyogenes M1 GAS;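 further: secreted streptokinase activity via plasminogen activation per viability signal from cell pellet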
T5 sequence (P10520 whole entry): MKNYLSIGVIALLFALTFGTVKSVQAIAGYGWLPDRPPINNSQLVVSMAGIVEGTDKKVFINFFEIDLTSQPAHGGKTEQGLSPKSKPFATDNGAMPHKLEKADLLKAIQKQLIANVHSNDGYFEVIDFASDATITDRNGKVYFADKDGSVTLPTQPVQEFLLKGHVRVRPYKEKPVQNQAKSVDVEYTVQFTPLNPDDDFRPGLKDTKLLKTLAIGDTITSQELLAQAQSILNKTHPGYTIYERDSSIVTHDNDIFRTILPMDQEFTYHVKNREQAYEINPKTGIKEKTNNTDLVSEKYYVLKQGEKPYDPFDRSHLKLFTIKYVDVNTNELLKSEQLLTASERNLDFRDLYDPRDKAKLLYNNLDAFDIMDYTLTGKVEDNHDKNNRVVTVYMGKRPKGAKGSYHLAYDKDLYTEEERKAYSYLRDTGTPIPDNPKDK

[19] = system: Streptococcus; assay: GAS UMAA2166 growth inhibition – luminescence, BacTiterGlo, counter-screen for streptokinase expression inhibitor project, dose response (AID 1915); assay type: functional, organism-based;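 further: potency for reduction of bacterial viability or growth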
[20] = system: H9c2; assay: cells; assay type: functional, cell-based; conditions: Rattus norvegicus, H9c2, Myocardium;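 further: confirmatory concentration-response retest of ultra-high-throughput screening hits for modulation of myocardial damage; cell death induced by hydrogen peroxide oxidative stress; compound pretreatment for 60 min then peroxide exposure for 2 h; potency is for protecting the cells against peroxide damage rather than for killing them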

Cn1cc(NC(=O)CCl)cn1
CC50 [1]: > 40 µM (active)

Cc1ccc(/C=C/C(=O)c2ccc(O)cc2)cc1
EC50 [2]: 3.35 µM (active)

CC(C)OC(=O)CCCCCN1C(=O)CSC1=S
EC50 [3]: 4.77 µM (active) | CC50 [1]: 31.3 µM (active) | EC50 [4]: 8.46 µM (active) | IC50 [5]: 6.29 µM (active)

COC(=O)Cn1cc(C=C2C(=O)NC(=O)NC2=O)c2ccccc21
EC50 [6]: > 300 µM (not active) | EC50 [7]: > 300 µM (not active) | IC50 [8]: 25.7 µM (active)

O=C(C1CCC1)N1CCN(S(=O)(=O)c2ccc(Br)cc2Cl)CC1
CC50 [1]: > 40 µM (active)

O=C1NC(=O)N(CCC2=CCCCC2)C(=O)/C1=C(O)/C=C/c1ccc2c(c1)OCO2
EC50 [9]: 17.1 µM (active) | EC50 [10]: 15 µM (active) | AC50 [11]: 1.37 µM (active)

O=C1CC(/C=C/c2ccc(Cl)cc2)=Nc2ccccc2N1
CC50 [1]: 23.8 µM (active)

COc1cc(C=C2C(=O)NC(=O)NC2=O)ccc1OS(=O)(=O)c1ccccc1[N+](=O)[O-]
IC50 [8]: 37.7 µM (active)

COc1ccc2c(c1)c(=O)oc1cc(OCC(=O)NC3CC3)ccc12
EC50 [9]: 14.1 µM (active) | EC50 [10]: 37.7 µM (active)

CN(C)c1cccc(C(=O)Nc2nc3ccccc3[nH]2)c1
AC50 [12]: > 52 µM (inactive) | AC50 [13]: 6.18 µM (active) | AC50 [14]: 5.96 µM (active)

O=[N+]([O-])c1cccc(N(CC(O)CN2CCCC2)S(=O)(=O)c2ccccc2)c1 (configuration not stated)
EC50 [2]: 10.6 µM (active)

Cc1ccc(N(C(=O)c2snc(C(N)=O)c2N)C(C(=O)NCC2CCCO2)c2ccc(C)o2)c(C)c1 (configuration not stated)
EC50 [2]: 1.68 µM (active)

N=C(Cc1cccc2ccccc12)NOC(=O)c1cccs1
EC50 [2]: 0.596 µM (active) | AC50 [15]: 5.96 µM (active)

CCCc1nc2ccccc2n1Cc1ccccc1OC
EC50 [2]: 6.68 µM (active)

CCCCn1nc(C(=O)N[C@@H](CCSC)c2nc3ccccc3[nH]2)c2ccccc2c1=O
CC50 [1]: > 40 µM (active)

CCOC(=O)C1(CCOC)CCN(C(C)CCc2ccc(OC)cc2)CC1 (configuration not stated)
EC50 [2]: 4.22 µM (active)

CCc1cnc(N2[C@H](C#N)[C@H](c3ccc(C#Cc4ccccc4F)cc3)[C@H]2CO)s1
AC50 [16]: 33.6 µM (active)

CC1CCN(Cc2c(O)ccc3c(O)c(-c4nc5ccccc5s4)c(=N)oc23)CC1
EC50 [9]: 16.6 µM (active) | EC50 [10]: 16.8 µM (active)

CC(=O)N1CCN(c2ccccc2NC(=O)c2cccs2)CC1
EC50 [17]: > 150 µM (not active) | EC50 [18]: > 150 µM (not active) | EC50 [19]: > 150 µM (not active) | EC50 [2]: 1.68 µM (active)

O=C(NC1CCCCC1)C(c1cccs1)N(CCCN1CCOCC1)C(=O)c1ccc(-c2ccccc2)[nH]1 (configuration not stated)
CC50 [1]: > 40 µM (active)

CNC(=O)c1ccc(-c2sc3nc(N4CCOCC4)c4c(c3c2N)CCCC4)o1
EC50 [9]: 23.5 µM (active) | EC50 [10]: 24.6 µM (active) | IC50 [20]: 14.2 µM (active)

COc1cc(NS(=O)(=O)c2ccc(N/C=C(\C#N)c3nc4cc(Cl)ccc4o3)cc2)nc(OC)n1
EC50 [9]: 12.7 µM (active) | EC50 [10]: 14.7 µM (active) | AC50 [11]: 2.08 µM (active)

Cc1sc(C(C2C(=O)CC(C)(C)CC2=O)C2C(=O)CC(C)(C)CC2=O)cc1[N+](=O)[O-]
IC50 [8]: 29.4 µM (active)
